Experimental data as given in patent publication US7064128B2, “Preferentially substituted calcium channel blockers” (NeuroMed Technologies, Inc., priority 1998, dated 2006).

Target: T1, rat α1B+α2b+β1b channels (N-type channels) (Rattus norvegicus, UniProt Q02294)
T1 construct: expressed in transfected cells
Assay: Whole cell patch recordings, N-type calcium channel block (Examples 1 and 4)
Type: cell-based
Details: block of N-type calcium channels, HEK cells, 5 mM barium as charge carrier
Method: Antagonist activity was measured using whole cell patch recordings on human embryonic kidney cells either stably or transiently expressing rat α1B+α2b+β1b channels (N-type channels) with 5 mM barium as a charge carrier.
For transient expression, host cells, such as human embryonic kidney cells, HEK 293 (ATCC# CRL 1573) were grown in standard DMEM medium supplemented with 2 mM glutamine and 10% fetal bovine serum. HEK 293 cells were transfected by a standard calcium-phosphate-DNA coprecipitation method using the rat α1B+β1b+α2δ N-type calcium channel subunits in a vertebrate expression vector (for example, see Current Protocols in Molecular Biologyl ).
After an incubation period of from 24 to 72 hrs the culture medium was removed and replaced with external recording solution (see below). Whole cell patch clamp experiments were performed using an Axopatch 200B amplifier (Axon Instruments, Burlingame, Calif.) linked to an IBM compatible personal computer equipped with pCLAMP software. Borosilicate glass patch pipettes (Sutter Instrument Co., Novato, Calif.) were polished (Microforge, Narishige, Japan) to a resistance of about 4 MΩ when filled with cesium methanesulfonate internal solution (composition in MM: 109 CsCH3SO4, 4 MgCl2, 9 EGTA, 9 HEPES, pH 7.2). Cells were bathed in 5 mM Ba^++ (in mM: 5 BaCl2, 1 MgCl2, 10 HEPES, 40 tetraethylammonium chloride, 10 glucose, 87.5 CsCl pH 7.2). Current data shown were elicited by a train of 100 ms test pulses at 0.066 Hz from −100 mV and/or −80 mV to various potentials (min. −20 mV, max. +30 mV). Drugs were perfused directly into the vicinity of the cells using a microperfusion system.
Normalized dose-response curves were fit (Sigmaplot 4.0, SPSS Inc., Chicago, Ill.) by the Hill equation to determine IC50 values. Steady-state inactivation curves were plotted as the normalized test pulse amplitude following 5 s inactivating prepulses at +10 mV increments. Inactivation curves were fit (Sigmaplot 4.0) with the Boltzman equation, Ipeak (normalized)=1/(1+exp((V−Vh)z/25.6)), where V and Vh are the conditioning and half inactivation potentials, respectively, and z is the slope factor.

T1 sequence (Q02294 whole entry): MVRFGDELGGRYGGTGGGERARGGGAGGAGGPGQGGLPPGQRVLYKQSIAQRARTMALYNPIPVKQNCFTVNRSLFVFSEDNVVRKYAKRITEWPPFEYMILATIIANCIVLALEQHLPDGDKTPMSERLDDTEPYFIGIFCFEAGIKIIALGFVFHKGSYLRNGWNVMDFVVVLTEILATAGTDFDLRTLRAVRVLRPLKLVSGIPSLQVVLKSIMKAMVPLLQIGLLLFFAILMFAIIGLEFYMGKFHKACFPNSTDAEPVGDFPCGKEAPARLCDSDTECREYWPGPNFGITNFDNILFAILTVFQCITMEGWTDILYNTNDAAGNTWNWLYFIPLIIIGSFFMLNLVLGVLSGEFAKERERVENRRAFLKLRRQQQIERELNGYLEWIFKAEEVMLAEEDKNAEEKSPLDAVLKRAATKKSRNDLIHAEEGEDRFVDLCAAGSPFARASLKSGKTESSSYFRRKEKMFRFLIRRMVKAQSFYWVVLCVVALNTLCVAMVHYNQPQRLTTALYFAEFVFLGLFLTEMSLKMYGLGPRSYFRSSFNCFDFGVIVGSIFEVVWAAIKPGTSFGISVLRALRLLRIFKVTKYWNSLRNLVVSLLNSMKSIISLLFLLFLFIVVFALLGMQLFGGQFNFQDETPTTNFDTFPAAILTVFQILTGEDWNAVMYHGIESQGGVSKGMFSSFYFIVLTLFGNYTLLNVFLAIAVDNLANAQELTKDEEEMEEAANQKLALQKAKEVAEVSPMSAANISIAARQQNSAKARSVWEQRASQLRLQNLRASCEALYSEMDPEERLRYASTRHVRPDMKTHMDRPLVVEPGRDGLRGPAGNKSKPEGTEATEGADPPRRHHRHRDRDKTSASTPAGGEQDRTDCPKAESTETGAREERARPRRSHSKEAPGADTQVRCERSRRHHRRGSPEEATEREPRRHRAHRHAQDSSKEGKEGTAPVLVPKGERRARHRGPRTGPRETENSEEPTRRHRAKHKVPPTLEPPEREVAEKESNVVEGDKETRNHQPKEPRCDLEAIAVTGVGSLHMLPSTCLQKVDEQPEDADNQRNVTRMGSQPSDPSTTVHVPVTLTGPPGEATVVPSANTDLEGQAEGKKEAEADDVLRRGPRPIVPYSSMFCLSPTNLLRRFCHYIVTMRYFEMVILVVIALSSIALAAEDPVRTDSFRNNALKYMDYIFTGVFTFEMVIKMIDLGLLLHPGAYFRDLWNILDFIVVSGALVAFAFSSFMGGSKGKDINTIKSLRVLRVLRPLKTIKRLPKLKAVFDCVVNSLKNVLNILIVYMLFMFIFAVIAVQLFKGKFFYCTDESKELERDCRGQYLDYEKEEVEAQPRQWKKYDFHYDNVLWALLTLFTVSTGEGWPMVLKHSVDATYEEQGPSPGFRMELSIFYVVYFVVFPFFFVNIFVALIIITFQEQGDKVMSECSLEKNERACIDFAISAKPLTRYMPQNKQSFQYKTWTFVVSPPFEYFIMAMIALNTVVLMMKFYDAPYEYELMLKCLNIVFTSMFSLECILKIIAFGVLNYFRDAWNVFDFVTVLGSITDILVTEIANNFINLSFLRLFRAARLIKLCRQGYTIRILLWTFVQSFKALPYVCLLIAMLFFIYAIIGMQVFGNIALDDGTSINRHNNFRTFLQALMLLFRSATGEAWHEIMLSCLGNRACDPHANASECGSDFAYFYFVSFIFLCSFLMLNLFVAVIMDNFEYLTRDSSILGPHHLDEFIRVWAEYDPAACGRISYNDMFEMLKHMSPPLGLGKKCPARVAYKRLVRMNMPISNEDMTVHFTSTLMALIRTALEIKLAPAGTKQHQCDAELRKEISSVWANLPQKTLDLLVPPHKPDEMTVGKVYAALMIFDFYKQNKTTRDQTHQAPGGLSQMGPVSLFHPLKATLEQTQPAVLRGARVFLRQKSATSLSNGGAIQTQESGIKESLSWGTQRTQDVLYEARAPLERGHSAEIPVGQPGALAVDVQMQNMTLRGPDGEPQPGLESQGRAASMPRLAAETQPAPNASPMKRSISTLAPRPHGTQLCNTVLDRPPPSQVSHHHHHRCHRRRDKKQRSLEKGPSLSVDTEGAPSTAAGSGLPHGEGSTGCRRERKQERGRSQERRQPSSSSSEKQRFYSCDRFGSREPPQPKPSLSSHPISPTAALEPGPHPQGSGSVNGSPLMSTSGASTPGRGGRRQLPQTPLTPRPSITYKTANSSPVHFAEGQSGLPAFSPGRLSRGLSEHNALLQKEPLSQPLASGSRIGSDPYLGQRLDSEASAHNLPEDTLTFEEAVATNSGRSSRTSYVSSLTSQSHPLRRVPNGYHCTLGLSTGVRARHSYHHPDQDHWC
T1 sequence (P54290 25-944 partner limits assumed): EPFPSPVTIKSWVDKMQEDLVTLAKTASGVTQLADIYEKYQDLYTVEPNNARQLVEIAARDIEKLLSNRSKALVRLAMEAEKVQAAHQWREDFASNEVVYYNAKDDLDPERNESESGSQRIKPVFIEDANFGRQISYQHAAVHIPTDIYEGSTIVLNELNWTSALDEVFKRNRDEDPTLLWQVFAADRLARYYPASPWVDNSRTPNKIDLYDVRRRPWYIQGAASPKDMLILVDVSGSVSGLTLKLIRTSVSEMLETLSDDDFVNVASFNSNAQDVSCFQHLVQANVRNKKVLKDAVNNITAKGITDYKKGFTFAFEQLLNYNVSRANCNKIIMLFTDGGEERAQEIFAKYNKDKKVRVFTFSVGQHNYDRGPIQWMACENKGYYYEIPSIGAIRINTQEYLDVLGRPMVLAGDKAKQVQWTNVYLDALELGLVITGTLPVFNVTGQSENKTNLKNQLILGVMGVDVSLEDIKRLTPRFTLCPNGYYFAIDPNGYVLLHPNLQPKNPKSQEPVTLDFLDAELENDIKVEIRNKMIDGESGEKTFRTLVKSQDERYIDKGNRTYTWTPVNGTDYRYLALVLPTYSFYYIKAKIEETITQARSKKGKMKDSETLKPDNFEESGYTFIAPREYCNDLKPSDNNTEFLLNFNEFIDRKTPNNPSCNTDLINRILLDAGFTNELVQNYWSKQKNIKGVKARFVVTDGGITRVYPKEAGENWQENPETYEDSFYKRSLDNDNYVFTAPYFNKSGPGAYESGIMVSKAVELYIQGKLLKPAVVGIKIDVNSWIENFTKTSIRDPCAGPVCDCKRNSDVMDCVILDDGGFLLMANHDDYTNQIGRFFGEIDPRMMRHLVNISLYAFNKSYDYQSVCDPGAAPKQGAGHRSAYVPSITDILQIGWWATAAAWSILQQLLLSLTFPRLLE
T1 sequence (P54290 945-1091 partner limits assumed): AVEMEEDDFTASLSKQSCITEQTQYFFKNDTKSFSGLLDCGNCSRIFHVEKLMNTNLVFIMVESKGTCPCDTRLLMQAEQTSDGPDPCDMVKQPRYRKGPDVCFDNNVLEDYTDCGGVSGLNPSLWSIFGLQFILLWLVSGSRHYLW
T1 sequence (P54283 whole entry partner): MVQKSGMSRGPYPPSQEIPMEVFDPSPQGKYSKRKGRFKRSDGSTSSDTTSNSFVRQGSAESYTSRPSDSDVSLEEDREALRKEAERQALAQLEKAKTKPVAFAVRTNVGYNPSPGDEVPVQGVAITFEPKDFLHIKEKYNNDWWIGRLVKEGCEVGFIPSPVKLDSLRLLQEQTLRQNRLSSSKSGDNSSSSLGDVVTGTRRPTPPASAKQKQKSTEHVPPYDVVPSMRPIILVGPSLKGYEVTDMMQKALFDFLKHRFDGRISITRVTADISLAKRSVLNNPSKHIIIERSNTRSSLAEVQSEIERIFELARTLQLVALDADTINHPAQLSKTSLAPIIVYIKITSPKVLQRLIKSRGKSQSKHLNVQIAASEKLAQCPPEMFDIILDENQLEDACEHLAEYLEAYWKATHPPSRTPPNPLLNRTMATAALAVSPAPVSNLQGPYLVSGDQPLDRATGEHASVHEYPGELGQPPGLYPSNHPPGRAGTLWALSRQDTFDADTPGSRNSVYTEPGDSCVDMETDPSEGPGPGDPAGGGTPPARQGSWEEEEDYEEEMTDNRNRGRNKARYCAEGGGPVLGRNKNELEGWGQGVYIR

Q: For `c1ccc(C(CN2CCN(CC3CCCCC3)CC2)C2CCCCC2)cc1` (centres unmarked) [Φ, Cy; CHCH2; N; 1; Cy], which IC50 is on record?
A: Its IC50 is 20.2 µM.

Q: For `c1ccc(CN2CCN(CC(c3ccccc3)C3CCCCC3)CC2)cc1` (centres unmarked) [Φ, Cy; CHCH2; N; 1; Φ], which IC50 is on record?
A: The IC50 was ~5 µM.

Q: Which IC50 does the source give for `O=C(C(c1ccccc1)C1CCCCC1)N1CCN(CC(c2ccccc2)c2ccccc2)CC1` (centres unmarked) [Φ, Cy; CHCO; N; 1; CHΦ2] here?
A: Its IC50 is 35 µM.

Q: `O=C(C(c1ccccc1)C1CCCCC1)N1CCN(CC=Cc2ccccc2)CC1` (centres unmarked) [Φ, Cy; CHCO; N; 1; CH═CHΦ] was tested. Which IC50 did it give?
A: The IC50 was 5.9 µM.

Q: For `O=C(C(c1ccccc1)C1CCCCC1)N1CCN(Cc2ccccc2)CC1` (centres unmarked) [Φ, Cy; CHCO; N; 1; Φ], which IC50 is on record?
A: The IC50 was 14.2 µM.

Q: How did the IC50 turn out when `c1ccc(C(CCN2CCC(NCC3CCCCC3)CC2)c2ccccc2)cc1` [Φ, Φ; CH(CH2)2; CHNH; 1; Cy] was run?
A: The IC50 was 2 to 3 µM.

Q: Which IC50 does the source give for `c1ccc(CNC2CCN(CCC(c3ccccc3)c3ccccc3)CC2)cc1` [Φ, Φ; CH(CH2)2; CHNH; 1; Φ] here?
A: Its IC50 is 2 µM.

Q: `O=C(CCCCC(c1ccccc1)c1ccccc1)N1CCC(NCC2CCCCC2)CC1` [Φ, Φ; CH(CH2)4CO; CHNH; 1; Cy] was tested. Which IC50 did it give?
A: The IC50 was 0.75 µM.

Q: For `c1ccc(C(CN2CCC(NCC3CCCCC3)CC2)c2ccccc2)cc1` [Φ, Φ; CHCH2; CHNH; 1; Cy], which IC50 is on record?
A: The IC50 was 3 to 4 µM.

Q: With `c1ccc(CNC2CCN(CC(c3ccccc3)c3ccccc3)CC2)cc1` [Φ, Φ; CHCH2; CHNH; 1; Φ] as the molecule, how does the IC50 read?
A: Its IC50 is ~3 µM.

Q: How did the IC50 turn out when `C(CCN1CCN(CC2CCCCC2)CC1)=C(c1ccccc1)c1ccccc1` [Φ, Φ; C═CH(CH2)2; N; 1; Cy] was run?
A: Its IC50 is 5.2 µM.
